MEC data for 30 compounds are collected here from patent publication US9776997B2, “3-aryl-substituted imidazo[1,2-A]pyridines and their use” (Bayer Pharma Aktiengesellschaft, priority 2013, dated 2017).

Where “and” joins values, the source holds several entries; their conditions need not be identical. Equal values may be shown once.

The target of this experiment is T1, recombinant guanylate cyclase reporter cell line (Rattus norvegicus, UniProt P19686+P20595).
T1 construct: expressed in transfected cells; host or cells: recombinant reporter cell line
T1 sequence (P19686 1-690): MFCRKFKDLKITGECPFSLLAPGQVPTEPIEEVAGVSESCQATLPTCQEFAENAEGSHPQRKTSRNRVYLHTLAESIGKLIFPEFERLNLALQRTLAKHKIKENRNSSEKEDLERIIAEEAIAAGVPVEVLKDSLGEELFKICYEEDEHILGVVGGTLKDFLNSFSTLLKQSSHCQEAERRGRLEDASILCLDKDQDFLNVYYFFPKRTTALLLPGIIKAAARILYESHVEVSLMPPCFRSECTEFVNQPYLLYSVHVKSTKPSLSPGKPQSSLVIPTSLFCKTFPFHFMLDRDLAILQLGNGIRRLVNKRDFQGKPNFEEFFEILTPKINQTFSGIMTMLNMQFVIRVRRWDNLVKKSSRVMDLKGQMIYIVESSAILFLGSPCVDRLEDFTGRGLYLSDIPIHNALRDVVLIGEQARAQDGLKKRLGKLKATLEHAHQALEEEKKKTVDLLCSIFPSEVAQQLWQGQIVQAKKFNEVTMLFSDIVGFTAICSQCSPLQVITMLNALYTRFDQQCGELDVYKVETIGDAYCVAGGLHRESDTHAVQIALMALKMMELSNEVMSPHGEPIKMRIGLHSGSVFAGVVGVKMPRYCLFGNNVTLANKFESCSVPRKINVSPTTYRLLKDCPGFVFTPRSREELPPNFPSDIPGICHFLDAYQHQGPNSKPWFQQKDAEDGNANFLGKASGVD
T1 sequence (P20595 1-619): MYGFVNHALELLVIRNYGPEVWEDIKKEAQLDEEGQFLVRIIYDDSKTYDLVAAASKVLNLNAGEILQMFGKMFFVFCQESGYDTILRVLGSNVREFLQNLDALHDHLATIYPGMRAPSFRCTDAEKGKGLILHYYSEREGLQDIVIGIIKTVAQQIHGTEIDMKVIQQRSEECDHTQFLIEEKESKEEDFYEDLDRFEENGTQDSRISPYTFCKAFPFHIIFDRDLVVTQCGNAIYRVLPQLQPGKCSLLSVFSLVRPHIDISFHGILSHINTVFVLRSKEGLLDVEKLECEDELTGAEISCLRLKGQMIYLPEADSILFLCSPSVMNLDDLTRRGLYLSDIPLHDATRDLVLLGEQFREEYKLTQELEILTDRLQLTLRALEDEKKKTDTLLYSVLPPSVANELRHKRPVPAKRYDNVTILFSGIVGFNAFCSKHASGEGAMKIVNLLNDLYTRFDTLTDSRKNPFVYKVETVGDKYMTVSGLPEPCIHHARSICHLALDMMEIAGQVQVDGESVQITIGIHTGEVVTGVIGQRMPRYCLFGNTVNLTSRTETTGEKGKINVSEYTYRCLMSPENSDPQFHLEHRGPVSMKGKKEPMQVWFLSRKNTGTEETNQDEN
The experiment can be described thus: Effect on a recombinant guanylate cyclase reporter cell line. It counts as cell-based. The following applies: MEC = minimum effective concentration; in some cases mean values for individual determinations. On the procedure:
B-2. Effect on a Recombinant Guanylate Cyclase Reporter Cell Line
The cellular effect of the inventive compounds is determined using a recombinant guanylate cyclase reporter cell line, as described in F. Wunder et al., Anal. Biochem. 339, 104-112 (2005).
Representative MEC values (MEC=minimum effective concentration) for the inventive compounds are shown in the table below (in some cases as mean values for individual determinations): […]
In the case of `Cc1cc(OCc2c(F)cccc2F)c2nc(C)c(-c3cnn(CCc4c(C)n[nH]c4C)c3)n2c1` [Example 99, 8-[(2,6-Difluorobenzyl)oxy]-3-{1-[2-(3,5-dimethyl-1H-pyrazol-4-yl)ethyl]-1H-pyrazol-4-yl}-2,6-dimethylimidazo[1,2-a]pyridine], the MEC was 0.03 µM and 0.1 µM.

On to `Cc1cc(OCc2c(F)cccc2F)c2nc(C)c(-c3cnn(CCCC#N)c3)n2c1` [Example 100, 4-(4-{8-[(2,6-Difluorobenzyl)oxy]-2,6-dimethylimidazo[1,2-a]pyridin-3-yl}-1H-pyrazol-1-yl)butanonitrile], for which the MEC stood at 0.03 µM.

For `Cc1cc(OCc2c(F)cccc2F)c2nc(C)c(-c3cnn(CCCc4nnn[nH]4)c3)n2c1` [Example 101, 8-[(2,6-Difluorobenzyl)oxy]-2,6-dimethyl-3-{1-[3-(1H-tetrazol-5-yl)propyl]-1H-pyrazol-4-yl}imidazo[1,2-a]pyridine], the MEC came out at 0.1 µM.

`COC(=O)CCn1cc(-c2c(C)nc3c(OCc4c(F)cccc4F)cc(C)cn23)cn1` [Example 102, Methyl 3-(4-{8-[(2,6-difluorobenzyl)oxy]-2,6-dimethylimidazo[1,2-a]pyridin-3-yl}-1H-pyrazol-1-yl)propanoate]: the MEC worked out at 0.1 µM.

`COC(=O)Cn1cc(-c2c(C)nc3c(OCc4c(F)cccc4F)cc(C)cn23)cn1` [Example 103, methyl (4-{8-[(2,6-difluorobenzyl)oxy]-2,6-dimethylimidazo[1,2-a]pyridin-3-yl}-1H-pyrazol-1-yl)acetate]: the MEC came out at 0.03 µM.

`COC(=O)C(C)n1cc(-c2c(C)nc3c(OCc4c(F)cccc4F)cc(C)cn23)cn1` (stereo not drawn) [Example 104]: the MEC came out at 0.3 µM.

As to `COC(=O)CC(C)n1cc(-c2c(C)nc3c(OCc4c(F)cccc4F)cc(C)cn23)cn1` (stereo not drawn) [Example 105], the MEC amounted to 0.01 µM.

On to `COC(=O)C1CC1n1cc(-c2c(C)nc3c(OCc4c(F)cccc4F)cc(C)cn23)cn1` (stereo not drawn) [Example 106], for which the MEC is 0.3 µM.

Turning to `Cc1cc(OCc2c(F)cccc2F)c2nc(C)c(-c3cnn(CCC(=O)O)c3)n2c1` [Example 107, 3-(4-{8-[(2,6-Difluorobenzyl)oxy]-2,6-dimethylimidazo[1,2-a]pyridin-3-yl}-1H-pyrazol-1-yl)propanoic acid], the MEC came to 0.065 µM.

Regarding `Cc1cc(OCc2c(F)cccc2F)c2nc(C)c(-c3cnn(CC(=O)O)c3)n2c1` [Example 108, (4-{8-[(2,6-difluorobenzyl)oxy]-2,6-dimethylimidazo[1,2-a]pyridin-3-yl}-1H-pyrazol-1-yl)acetic acid], the MEC was found to be 0.3 µM.

Turning to `Cc1cc(OCc2c(F)cccc2F)c2nc(C)c(-c3cnn(C(C)C(=O)O)c3)n2c1` (stereo not drawn) [Example 109], the MEC was determined as 0.3 µM.

`Cc1cc(OCc2c(F)cccc2F)c2nc(C)c(-c3cnn(C4CC4C(=O)O)c3)n2c1` (stereo not drawn) [Example 111]: the MEC was found to be 1.0 µM.

`Cc1cc(OCc2c(F)cccc2F)c2nc(C)c(-c3cnn(CC(=O)NC4CC4)c3)n2c1` [Example 113, N-Cyclopropyl-2-(4-{8-[(2,6-difluorobenzyl)oxy]-2,6-dimethylimidazo[1,2-a]pyridin-3-yl}-1H-pyrazol-1-yl)acetamide]: the MEC was found to be 0.03 µM.

Regarding `Cc1cc(OCc2c(F)cccc2F)c2nc(C)c(-c3cnn(CCC(=O)NC4CC4)c3)n2c1` [Example 114, N-Cyclopropyl-3-(4-{8-[(2,6-difluorobenzyl)oxy]-2,6-dimethylimidazo[1,2-a]pyridin-3-yl}-1H-pyrazol-1-yl)propanamide], the MEC worked out at 0.3 µM.

In the case of `Cc1cc(OCc2c(F)cccc2F)c2nc(C)c(-c3cnn(CC(N)=O)c3)n2c1` [Example 115, 2-(4-{8-[(2,6-Difluorobenzyl)oxy]-2,6-dimethylimidazo[1,2-a]pyridin-3-yl}-1H-pyrazol-1-yl)acetamide], the MEC was found to be 0.1 µM.

With `Cc1cc(OCc2c(F)cccc2F)c2nc(C)c(-c3cnn(CC(C)(C)O)c3)n2c1` [Example 116, 1-(4-{8-[(2,6-Difluorobenzyl)oxy]-2,6-dimethylimidazo[1,2-a]pyridin-3-yl}-1H-pyrazol-1-yl)-2-methylpropan-2-ol], the MEC turned out to be 0.01 µM.

With `Cc1cc(OCc2c(F)cccc2F)c2nc(C)c(-c3cnn(CC(C)(C)N)c3)n2c1.Cl` [Example 117, 1-(4-{8-[(2,6-Difluorobenzyl)oxy]-2,6-dimethylimidazo[1,2-a]pyridin-3-yl}-1H-pyrazol-1-yl)-2-methylpropan-2-amine hydrochloride], the MEC was found to be 0.1 µM.

As to `Cc1cc(OCc2c(F)cccc2F)c2nc(C)c(-c3cnn(CCN4CCOCC4)c3)n2c1` [Example 118, 8-[(2,6-Difluorobenzyl)oxy]-2,6-dimethyl-3-{1-[2-(morpholin-4-yl)ethyl]-1H-pyrazol-4-yl}imidazo[1,2-a]pyridine], the MEC amounted to 0.03 µM.

Regarding `Cc1nc2c(OCc3c(F)cccc3F)cccn2c1-c1cnn(CCN2CCOCC2)c1` [Example 119], the MEC is 0.1 µM.

Consider `Cc1cc(OCc2c(F)cccc2F)c2nc(C)c(-c3cccc(CN4CCN(C)CC4)c3)n2c1` [Example 120], for which the MEC is 0.3 µM.

For the compound `Cc1nc2c(OCc3c(F)cccc3F)cccn2c1-c1cnn(-c2cccnc2)c1` [Example 121], the MEC stood at 1.0 µM.

Take `Cc1nc2c(OCc3c(F)cccc3F)cccn2c1-c1cnn(-c2cncc(F)c2)c1` [Example 122]: the MEC is 3.0 µM.

Take `Cc1nc2c(OCc3c(F)cccc3F)cccn2c1-c1cnn(-c2ccc(F)cc2)c1` [Example 123, 8-[(2,6-Difluorobenzyl)oxy]-3-[1-(4-fluorophenyl)-1H-pyrazol-4-yl]-2-methylimidazo[1,2-a]pyridine]: the MEC was determined as 0.3 µM.

With `Cc1nc2c(OCc3c(F)cccc3F)cccn2c1-c1nc(N)n[nH]1` [Example 124, 5-{8-[(2,6-Difluorobenzyl)oxy]-2-methylimidazo[1,2-a]pyridin-3-yl}-1H-1,2,4-triazol-3-amine], the MEC was 3.0 µM.

Turning to `Cc1nc2c(OCc3c(F)cccc3F)cccn2c1-c1nc(N)n(CC(F)(F)F)n1` [Example 125, 3-{8-[(2,6-Difluorobenzyl)oxy]-2-methylimidazo[1,2-a]pyridin-3-yl}-1-(2,2,2-trifluoroethyl)-1H-1,2,4-triazol-5-amine], the MEC was 3.0 µM.

Take `Cc1cc(OCc2c(F)cccc2F)c2nc(C)c(-c3n[nH]c(C(F)(F)F)n3)n2c1` [Example 126, 8-[(2,6-Difluorobenzyl)oxy]-2,6-dimethyl-3-[5-(trifluoromethyl)-1H-1,2,4-triazol-3-yl]imidazo[1,2-a]pyridine]: the MEC was 3.0 µM.

As for `Cc1cc(OCc2c(F)cccc2F)c2nc(C)c(-c3cn(CC(C)(C)N)nc3C)n2c1.O=CO` [Example 127, 1-(4-{8-[(2,6-Difluorobenzyl)oxy]-2,6-dimethylimidazo[1,2-a]pyridin-3-yl}-3-methyl-1H-pyrazol-1-yl)-2-methylpropan-2-amine formate], the MEC came out at 0.3 µM.

Take `Cc1cc(OCc2c(F)cccc2F)c2nc(C)c(-c3nc[nH]n3)n2c1` [Example 128, 8-[(2,6-Difluorobenzyl)oxy]-2,6-dimethyl-3-(1H-1,2,4-triazol-3-yl)imidazo[1,2-a]pyridine]: the MEC was found to be 1.0 µM.

Consider `Cc1cc(OCc2c(F)cccc2F)c2nc(C)c(-c3ncn(CC(C)(C)N)n3)n2c1` [Example 129, 1-(3-{8-[(2,6-Difluorobenzyl)oxy]-2,6-dimethylimidazo[1,2-a]pyridin-3-yl}-1H-1,2,4-triazol-1-yl)-2-methylpropan-2-amine], for which the MEC worked out at 1.0 µM.

Turning to `Cc1cc(OCc2c(F)cccc2F)c2nc(C)c(-c3nnc(CC(C)(C)N)o3)n2c1` [Example 130, 1-(5-{8-[(2,6-Difluorobenzyl)oxy]-2,6-dimethylimidazo[1,2-a]pyridin-3-yl}-1,3,4-oxadiazol-2-yl)-2-methylpropan-2-amine], the MEC is 3.0 µM.
